Laboratory results: ChEMBL document CHEMBL1201862, “PubChem BioAssay data set” (2004)
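All cell lines were grown in 96-well plates and treated with compound for 48 hours. GI50 = concentration required for 50% inhibition of growth.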 Calls of active or inactive are those of the source. Rule as the data show it: active = GI50 up to about 1.1 µM and inactive = higher.

Tests used:
Assay in all cases: DTP human tumour cell line panel, 48 h
NCI-H23 = test system: NCI-H23
MDA-MB-435 = test system: MDA-MB-435
M14 = test system: M14
MDA-MB-231 = test system: MDA-MB-231
UACC-62 = test system: UACC-62
SF-268 = test system: SF-268
U-251 = test system: U-251
Malme-3M = test system: Malme-3M
SK-MEL-2 = test system: SK-MEL-2
EKVX = test system: EKVX
NCI-H460 = test system: NCI-H460
PC-3 = test system: PC-3
CAKI-1 = test system: CAKI-1
786-0 = test system: 786-0
SK-OV-3 = test system: SK-OV-3
OVCAR-8 = test system: OVCAR-8
A498 = test system: A498
HT-29 = test system: HT-29
SK-MEL-5 = test system: SK-MEL-5
COLO 205 = test system: COLO 205
OVCAR-3 = test system: OVCAR-3
SN12C = test system: SN12C
SR = test system: SR
OVCAR-4 = test system: OVCAR-4
SNB-75 = test system: SNB-75
MDA-N = test system: MDA-N
DU-145 = test system: DU-145
HOP-62 = test system: HOP-62
HCT-15 = test system: HCT-15
NCI/ADR-RES = test system: NCI/ADR-RES
UO-31 = test system: UO-31
KM12 = test system: KM12
TK-10 = test system: TK-10
UACC-257 = test system: UACC-257
HL-60 = test system: HL-60
MOLT-4 = test system: MOLT-4
Hs-578T = test system: Hs-578T
RPMI-8226 = test system: RPMI-8226
SF-539 = test system: SF-539
A549 = test system: A549
HCC 2998 = test system: HCC 2998
SF-295 = test system: SF-295
NCI-H522 = test system: NCI-H522
IGROV-1 = test system: IGROV-1
SW-620 = test system: SW-620
SK-MEL-28 = test system: SK-MEL-28
NCI-H226 = test system: NCI-H226
BT-549 = test system: BT-549
OVCAR-5 = test system: OVCAR-5
MCF7 = test system: MCF7
HOP-92 = test system: HOP-92
T47D = test system: T47D
RXF 393 = test system: RXF 393
K562 = test system: K562
LOX IMVI = test system: LOX IMVI
ACHN = test system: ACHN
CCRF-CEM = test system: CCRF-CEM
HCT-116 = test system: HCT-116
SNB-19 = test system: SNB-19

C/N=c1\sc2nc(C#N)c(C#N)nc2n1C
GI50 (NCI-H23): 18.3 µM (inactive) | GI50 (MDA-MB-435): 21 µM (inactive) | GI50 (M14): 23 µM (inactive) | GI50 (MDA-MB-231): 40.1 µM (inactive) | GI50 (UACC-62): 18.3 µM (inactive) | GI50 (SF-268): 32.4 µM (inactive) | GI50 (U-251): 22.4 µM (inactive) | GI50 (Malme-3M): 17.6 µM (inactive) | GI50 (SK-MEL-2): 16.5 µM (inactive) | GI50 (EKVX): 18.5 µM (inactive) | GI50 (NCI-H460): 19.1 µM (inactive) | GI50 (PC-3): 40.2 µM (inactive) | GI50 (CAKI-1): 23.8 µM (inactive) | GI50 (786-0): 25.8 µM (inactive) | GI50 (SK-OV-3): 28 µM (inactive) | GI50 (OVCAR-8): > 10 µM (inactive) | GI50 (A498): 20.5 µM (inactive) | GI50 (HT-29): 15.9 µM (inactive) | GI50 (SK-MEL-5): 19.1 µM (inactive) | GI50 (COLO 205): 16.4 µM (inactive) | GI50 (OVCAR-3): 24.5 µM (inactive) | GI50 (SN12C): 37.9 µM (inactive) | GI50 (SR): > 57 µM (inactive) | GI50 (OVCAR-4): 22.9 µM (inactive) | GI50 (SNB-75): 19 µM (inactive) | GI50 (MDA-N): 22.4 µM (inactive) | GI50 (DU-145): 36.6 µM (inactive) | GI50 (HOP-62): 23.4 µM (inactive) | GI50 (HCT-15): 19.2 µM | GI50 (NCI/ADR-RES): 25.5 µM (inactive) | GI50 (UO-31): 20.4 µM (inactive) | GI50 (KM12): 27.5 µM (inactive) | GI50 (TK-10): 25.5 µM (inactive) | GI50 (UACC-257): 24.2 µM (inactive) | GI50 (HL-60): 10.9 µM (inactive) | GI50 (MOLT-4): 22.8 µM (inactive) | GI50 (Hs-578T): 31.1 µM (inactive) | GI50 (RPMI-8226): 44.4 µM (inactive) | GI50 (SF-539): 38.7 µM (inactive) | GI50 (A549): 18 µM (inactive) | GI50 (HCC 2998): 25.5 µM (inactive) | GI50 (SF-295): 18 µM (inactive) | GI50 (NCI-H522): 15 µM (inactive) | GI50 (IGROV-1): 25.2 µM (inactive) | GI50 (SW-620): 18.4 µM (inactive) | GI50 (SK-MEL-28): 29.2 µM (inactive) | GI50 (NCI-H226): 16.2 µM (inactive) | GI50 (BT-549): 28.8 µM (inactive) | GI50 (OVCAR-5): 19.2 µM (inactive) | GI50 (MCF7): 18.5 µM (inactive) | GI50 (HOP-92): 21.2 µM (inactive) | GI50 (T47D): 34 µM (inactive) | GI50 (RXF 393): 18.7 µM (inactive) | GI50 (K562): 25.6 µM (inactive) | GI50 (LOX IMVI): 17.8 µM (inactive) | GI50 (ACHN): 22.5 µM (inactive) | GI50 (CCRF-CEM): 19.7 µM (inactive) | GI50 (HCT-116): 18.9 µM (inactive) | GI50 (SNB-19): 28.4 µM (inactive)

CC(NNC(=O)c1cc[n+]([BH2-]C#N)cc1)C(F)(F)F (stereo not drawn)
GI50 (NCI-H23): > 100 µM (inactive) | GI50 (MDA-MB-435): > 100 µM (inactive) | GI50 (M14): > 100 µM (inactive) | GI50 (MDA-MB-231): > 100 µM (inactive) | GI50 (UACC-62): > 100 µM (inactive) | GI50 (SF-268): > 100 µM (inactive) | GI50 (U-251): > 100 µM (inactive) | GI50 (Malme-3M): > 100 µM (inactive) | GI50 (SK-MEL-2): > 100 µM (inactive) | GI50 (EKVX): > 100 µM (inactive) | GI50 (NCI-H460): > 100 µM (inactive) | GI50 (PC-3): > 100 µM (inactive) | GI50 (CAKI-1): > 100 µM (inactive) | GI50 (786-0): > 100 µM (inactive) | GI50 (SK-OV-3): > 100 µM (inactive) | GI50 (OVCAR-8): > 100 µM (inactive) | GI50 (A498): > 100 µM (inactive) | GI50 (HT-29): > 100 µM (inactive) | GI50 (SK-MEL-5): > 100 µM (inactive) | GI50 (COLO 205): > 100 µM (inactive) | GI50 (OVCAR-3): > 100 µM (inactive) | GI50 (SN12C): > 100 µM (inactive) | GI50 (SR): > 100 µM (inactive) | GI50 (OVCAR-4): > 100 µM (inactive) | GI50 (SNB-75): > 100 µM (inactive) | GI50 (MDA-N): > 100 µM (inactive) | GI50 (DU-145): > 100 µM (inactive) | GI50 (HOP-62): > 100 µM (inactive) | GI50 (HCT-15): > 100 µM | GI50 (NCI/ADR-RES): > 100 µM (inactive) | GI50 (UO-31): > 100 µM (inactive) | GI50 (KM12): > 100 µM (inactive) | GI50 (TK-10): > 100 µM (inactive) | GI50 (UACC-257): > 100 µM (inactive) | GI50 (HL-60): > 100 µM (inactive) | GI50 (MOLT-4): > 100 µM (inactive) | GI50 (Hs-578T): > 100 µM (inactive) | GI50 (RPMI-8226): > 100 µM (inactive) | GI50 (SF-539): > 100 µM (inactive) | GI50 (A549): > 100 µM (inactive) | GI50 (HCC 2998): > 100 µM (inactive) | GI50 (SF-295): > 100 µM (inactive) | GI50 (NCI-H522): > 100 µM (inactive) | GI50 (IGROV-1): > 100 µM (inactive) | GI50 (SW-620): > 100 µM (inactive) | GI50 (SK-MEL-28): > 100 µM (inactive) | GI50 (NCI-H226): > 100 µM (inactive) | GI50 (BT-549): > 100 µM (inactive) | GI50 (OVCAR-5): > 100 µM (inactive) | GI50 (MCF7): > 100 µM (inactive) | GI50 (HOP-92): > 100 µM (inactive) | GI50 (T47D): > 100 µM (inactive) | GI50 (RXF 393): > 100 µM (inactive) | GI50 (K562): > 100 µM (inactive) | GI50 (LOX IMVI): > 100 µM (inactive) | GI50 (ACHN): > 100 µM (inactive) | GI50 (CCRF-CEM): > 100 µM (inactive) | GI50 (HCT-116): > 100 µM (inactive) | GI50 (SNB-19): > 100 µM (inactive)
